Numbered stars: 1 amine (or outer) side, 2 acyl side, 3 side chain; on linkers, the order of the positions; unused ones are H or OH. Bridge positions count the residues as written; N and C are the ends. Square brackets hold non-standard residues; d marks the D form. Peptide text beside a SMILES is read from it. * marks the point of attachment. hPhe(3,5-F2-4-CF3) = N[C@@H](CCc1cc(F)c(C(F)(F)F)c(F)c1)C(=O)O; hPhe(3-Cl-4-CF3) = N[C@@H](CCc1ccc(C(F)(F)F)c(Cl)c1)C(=O)O; X33 = O=C([C@H](CCc1c(F)c(F)c(F)c(F)c1F)N[*:1])[*:2]; NMePhe(4-CF3) = CN[C@@H](Cc1ccc(C(F)(F)F)cc1)C(=O)O; hPhe(4-CF3) = N[C@@H](CCc1ccc(C(F)(F)F)cc1)C(=O)O; 3Oxa8azabicyclo(3.2.1)octane = C1CC2COCC1N2*; NMePhe(4-Cl) = CN[C@@H](Cc1ccc(Cl)cc1)C(=O)O; NMePhe(4-F) = CN[C@@H](Cc1ccc(F)cc1)C(=O)O; NMedβ3hAla = C[C@H](CC(=O)[*:2])N(C)[*:1]; NMeGly(cPent) = CN[C@H](C(=O)O)C1CCCC1; Pro(4,4-F2) = O=C(O)[C@@H]1CC(F)(F)CN1; X78 = O=C(CN(CCc1cccnc1)[*:1])[*:2]; NMeCha = CN[C@@H](CC1CCCCC1)C(=O)O; NMeGly(cPr) = CN[C@H](C(=O)O)C1CC1; NMeChg = CN[C@H](C(=O)O)C1CCCCC1; NMeF = CN[C@@H](Cc1ccccc1)C(=O)O; NMeI = CC[C@H](C)[C@H](NC)C(=O)O; NMeT = CN[C@H](C(=O)O)[C@@H](C)O; NMeD = CN[C@@H](CC(=O)O)C(=O)O; NMeL = CN[C@@H](CC(C)C)C(=O)O; NMeNle = CCCC[C@H](NC)C(=O)O; NMeNva = CCC[C@H](NC)C(=O)O; NMeV = CN[C@H](C(=O)O)C(C)C; d(β3hA) = C[C@@H](N)CC(=O)O; NMeAbu = CC[C@H](NC)C(=O)O; NMeS = CN[C@@H](CO)C(=O)O; NMeA = CN[C@@H](C)C(=O)O; Piperidide = C1CCN(*)CC1; Ac5c = NC1(C(=O)O)CCCC1; Aze = O=C(O)[C@@H]1CCN1; Aib = CC(C)(N)C(=O)O; NEtG = CCNCC(=O)O; Sar = CNCC(=O)O; Propyl = CCC*

The term IC50 denotes the concentration that inhibits the measured activity by half.

For the assay, the target named is protein-protein interaction between Kras and SOS1 (biotin-tagged human Kras loaded with GDP, His-tagged human SOS1) (Homo sapiens (Human), UniProt P01116, G12D). Put plainly: Protein-protein interaction inhibition between Kras and SOS1 (KrasG12D-SOS PPI) using AlphaScreen.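 Note: kras produced in E. coli, Ni-coupled donor beads and streptavidin acceptor beads, excitation 680 nm with emission detected at 520–620 nm via singlet oxygen transfer.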 Format: biochemical. Particulars: AlphaScreen; biotin-tagged human Kras loaded with GDP, His-tagged human SOS1; read-out: KRAS G12D-SOS PPI IC50. Background: In Alpha technology, singlet oxygen from a donor bead excites a nearby acceptor bead.
Turning to `CC[C@H](C)[C@@H]1NC(=O)[C@H](CC(C)C)N(C)C(=O)C[C@@H](C)N(C)C(=O)[C@H](C2CCCCC2)N(C)C(=O)C2(CCCC2)NC(=O)[C@@H]2CC(F)(F)CN2C(=O)[C@H](CCc2cc(F)c(C(F)(F)F)c(F)c2)NC(=O)CN(C)C(=O)[C@H](Cc2ccc(C(F)(F)F)cc2)N(C)C(=O)[C@@H]2CCN2C(=O)[C@H](C)N(C)C1=O` [Compound 606] (cyclo([Ac5c][NMeChg][NMedβ3hAla][NMeL]I[NMeA][Aze][NMePhe(4-CF3)][Sar][hPhe(3,5-F2-4-CF3)][Pro(4,4-F2)])), the IC50 is 8.3 nM.
As to `CC[C@H](C)[C@@H]1NC(=O)[C@H](CC(C)C)N(C)C(=O)C[C@@H](C(=O)N2CCCCC2)N(C)C(=O)[C@H](C2CCCCC2)N(C)C(=O)C2(CCCC2)NC(=O)CN(CCc2cccnc2)C(=O)[C@H](CCc2ccc(C(F)(F)F)c(Cl)c2)NC(=O)CN(C)C(=O)[C@H](CC2CCCCC2)N(C)C(=O)CN(C)C(=O)CN(C)C1=O` [Compound 2032] ([NMeL]I[Sar][Sar][NMeCha][Sar][hPhe(3-Cl-4-CF3)][X78][Ac5c][NMeChg][NMeD]-Piperidide; lactam N-11 (inferred); C-terminus assumed), the IC50 was determined as 1.2 nM.
Regarding `CC[C@H](C)[C@@H]1NC(=O)[C@H](CC(C)C)N(C)C(=O)C[C@@H](C(=O)N2CCCCC2)N(C)C(=O)[C@H](C(C)C)N(C)C(=O)C2(CCCC2)NC(=O)[C@@H]2CCCN2C(=O)[C@H](CCc2ccc(C(F)(F)F)c(Cl)c2)NC(=O)CN(C)C(=O)[C@H](CC2CCCCC2)N(C)C(=O)[C@@H]2CCN2C(=O)[C@H](CC)N(C)C1=O` [Compound 1569] ([NMeL]I[NMeAbu][Aze][NMeCha][Sar][hPhe(3-Cl-4-CF3)]P[Ac5c][NMeV][NMeD]-Piperidide; lactam N-11), the IC50 came to 16 nM.
On to `CCCOC[C@H]1C(=O)N(CC)CC(=O)N[C@@H](CCc2ccc(C(F)(F)F)c(Cl)c2)C(=O)N2CCC[C@H]2C(=O)NC2(CCCC2)C(=O)N(C)[C@@H](C2CCCC2)C(=O)N(C)[C@H](C(=O)N2C3CCC2COC3)CC(=O)N(C)[C@@H](CC(C)C)C(=O)N[C@@H]([C@@H](C)CC)C(=O)N(C)[C@@H](C)C(=O)N2CC[C@H]2C(=O)N1C` [Compound 1338] ([NMeL]I[NMeA][Aze][NMeS](Propyl)[NEtG][hPhe(3-Cl-4-CF3)]P[Ac5c][NMeGly(cPent)][NMeD]-{3Oxa8azabicyclo(3.2.1)octane}; lactam N-11), for which the half-inhibitory concentration (IC50) amounted to 17 nM.
As for `CC[C@H](C)[C@@H]1NC(=O)[C@H](CC(C)C)N(C)C(=O)C[C@@H](C)NC(=O)[C@H](CC(C)C)N(C)C(=O)C(C)(C)NC(=O)[C@H](CC(C)C)N(C)C(=O)[C@H](CCc2ccc(C(F)(F)F)cc2)NC(=O)CN(C)C(=O)[C@H](Cc2ccc(Cl)cc2)N(C)C(=O)CN(C)C(=O)CN(C)C1=O` [Compound 261] (cyclo([Aib][NMeL][d(β3hA)][NMeL]I[Sar][Sar][NMePhe(4-Cl)][Sar][hPhe(4-CF3)][NMeL])), the IC50 came to 52 nM.
In the case of `CCC[C@H]1C(=O)N2CC[C@H]2C(=O)N(C)[C@@H](CC2CCCCC2)C(=O)N(C)CC(=O)N[C@@H](CCc2ccc(C(F)(F)F)c(Cl)c2)C(=O)N2CCC[C@H]2C(=O)NC2(CCCC2)C(=O)N(C)[C@@H](C(C)C)C(=O)N[C@H](C)CC(=O)N(C)[C@@H](CC(C)C)C(=O)N[C@@H]([C@@H](C)CC)C(=O)N1C` [Compound 1560] (cyclo([Ac5c][NMeV][d(β3hA)][NMeL]I[NMeNva][Aze][NMeCha][Sar][hPhe(3-Cl-4-CF3)]P)), the IC50 is 160 nM.
For `CC[C@H](C)[C@@H]1NC(=O)[C@H](C)N(C)C(=O)C[C@@H](C)NC(=O)[C@H](CC(C)C)N(C)C(=O)[C@H](Cc2ccccc2)N(C)C(=O)[C@H](CC(C)C)NC(=O)[C@H](CCc2c(F)c(F)c(F)c(F)c2F)NC(=O)CN(C)C(=O)[C@H](Cc2ccc(Cl)cc2)N(C)C(=O)CN(C)C(=O)CN(C)C1=O` [Compound 2091] (cyclo(I[Sar][Sar][NMePhe(4-Cl)][Sar][X33]L[NMeF][NMeL][d(β3hA)][NMeA])), the IC50 is 270 nM.
The same measure for `CC[C@H](C)[C@@H]1NC(=O)[C@H](CC(C)C)N(C)C(=O)C[C@@H](C(=O)N2CCCCC2)N(C)C(=O)[C@H]([C@@H](C)CC)N(C)C(=O)C2(CCCC2)NC(=O)[C@@H]2CCCN2C(=O)[C@H](CCc2ccc(C(F)(F)F)c(Cl)c2)NC(=O)CN(C)C(=O)[C@H](Cc2ccc(F)cc2)N(C)C(=O)[C@@H]2CCN2C(=O)[C@H](C)N(C)C1=O` [Compound 1060] ([NMeL]I[NMeA][Aze][NMePhe(4-F)][Sar][hPhe(3-Cl-4-CF3)]P[Ac5c][NMeI][NMeD]-Piperidide; lactam N-11): 0.65 nM.
Take `CC[C@H](C)[C@@H]1NC(=O)[C@H](CC(C)C)N(C)C(=O)C[C@@H](C(=O)N2CCCCC2)N(C)C(=O)[C@H](C(C)C)N(C)C(=O)C2(CCCC2)NC(=O)[C@@H]2CCCN2C(=O)[C@H](CCc2ccc(C(F)(F)F)c(Cl)c2)NC(=O)CN(C)C(=O)[C@H](CC2CCCCC2)N(C)C(=O)[C@@H]2CCN2C(=O)[C@H](C)NC1=O` [Compound 1334] ([NMeL]IA[Aze][NMeCha][Sar][hPhe(3-Cl-4-CF3)]P[Ac5c][NMeV][NMeD]-Piperidide; lactam N-11): the IC50 worked out at 3 nM.
On to `CC[C@H](C)[C@@H]1NC(=O)[C@H](CC(C)C)N(C)C(=O)C[C@@H](C(=O)N2CCCCC2)N(C)C(=O)[C@H](C(C)C)N(C)C(=O)C2(CCCC2)NC(=O)[C@@H]2CCCN2C(=O)[C@H](CCc2ccc(C(F)(F)F)c(Cl)c2)NC(=O)CN(C)C(=O)[C@H]([C@@H](C)OC)N(C)C(=O)[C@@H]2CCN2C(=O)[C@H](C)N(C)C1=O` [Compound 929] ([NMeL]I[NMeA][Aze][NMeT](Me)[Sar][hPhe(3-Cl-4-CF3)]P[Ac5c][NMeV][NMeD]-Piperidide; lactam N-11), for which the IC50 worked out at 4.1 nM.
The same measure for `CCCC[C@H]1C(=O)N2CC[C@H]2C(=O)N(C)[C@@H](CC2CCCCC2)C(=O)N(C)CC(=O)N[C@@H](CCc2ccc(C(F)(F)F)c(Cl)c2)C(=O)N2CCC[C@H]2C(=O)NC2(CCCC2)C(=O)N(C)[C@@H](C(C)C)C(=O)N[C@H](C)CC(=O)N(C)[C@@H](CC(C)C)C(=O)N[C@@H]([C@@H](C)CC)C(=O)N1C` [Compound 1548] (cyclo([Ac5c][NMeV][d(β3hA)][NMeL]I[NMeNle][Aze][NMeCha][Sar][hPhe(3-Cl-4-CF3)]P)): 140 nM; for `CCCC[C@H]1C(=O)N[C@@H]([C@@H](C)CC)C(=O)N(C)[C@@H](C)C(=O)N2CC[C@H]2C(=O)N(C)[C@@H](CC2CCCCC2)C(=O)N(C)CC(=O)N[C@@H](CCc2ccc(C(F)(F)F)c(Cl)c2)C(=O)N2CCC[C@H]2C(=O)NC2(CCCC2)C(=O)N(C)[C@@H](C(C)C)C(=O)N[C@H](C)CC(=O)N1C` [Compound 1568] (cyclo([Ac5c][NMeV][d(β3hA)][NMeNle]I[NMeA][Aze][NMeCha][Sar][hPhe(3-Cl-4-CF3)]P)): 94 nM; for `CC[C@H](C)[C@@H]1NC(=O)[C@H](CC(C)C)N(C)C(=O)C[C@@H](C)NC(=O)[C@H](C(C)C)N(C)C(=O)C2(CCCC2)NC(=O)[C@@H]2CCCN2C(=O)[C@H](CCc2ccc(C(F)(F)F)c(Cl)c2)NC(=O)CN(C)C(=O)[C@H](CC2CCCCC2)N(C)C(=O)[C@@H]2CCN2C(=O)[C@H](C2CC2)N(C)C1=O` [Compound 1586] (cyclo([Ac5c][NMeV][d(β3hA)][NMeL]I[NMeGly(cPr)][Aze][NMeCha][Sar][hPhe(3-Cl-4-CF3)]P)): 59 nM.

Values taken from patent US20240148821A1, “PHARMACEUTICAL USE OF CYCLIC PEPTIDE COMPOUND” (CHUGAI SEIYAKU KABUSHIKI KAISHA, priority 2021, published 2024).
